Patent US9561228B2 (Celgene Avilomics Research, Inc., priority 2013, dated 2017)

How the values were obtained:
[1] = target: T1, MEK1 activated ERK1 (Homo sapiens, UniProt P27361); experiment: Omnia continuous-read kinase assay for potency against MEK1 activated ERK1; assay type: biochemical; details: MEK1 activated ERK1, ATP at KM; read-out: ERK1 Omnia WT ATP KM IC50
T1 construct: purchased Millipore (Billerica, Mass.) 14-439-K
Procedure, shortened: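 Apparent IC50 came from initial reaction slopes (RFU vs time) plotted against log inhibitor with a variable-slope fit. Reactions were started with ERK1 (4 nM final) added to 50 μM ATP, roughly at its appKM, and 10 μM Sox-conjugated ST17 peptide in 20 mM Tris pH 7.5, 5 mM MgCl2. Fluorescence was monitored every 71 seconds.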

[2] = system: A375 cells (malignant melanoma); experiment: Inhibition of cancer cell proliferation, A375 (CellTiterGlo, 72 hours); assay type: cell-based; details: Homo sapiens, A-375
Procedure, shortened: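 A375 melanoma cells, 3000/well, exposed 72 h at 37 °C to compound in 3-fold serial dilutions (solution added as 2× stock starting at 5,000 nM in serum-free DMEM). CellTiterGlo luminescence converted to cell number via standard curve; % inhibition vs untreated control, GI50 from curve fit.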

[3] = system: ERK1/2 phosphorylation of p90RSK in HT29 cells; experiment: pRSK MSD Assay in HT29 cells; assay type: cell-based; details: Homo sapiens, HT-29, read-out: ERK1/ERK2 PRSK MSD HT29 EC50
Procedure, shortened: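 Serum-starved HT29 cells (0.1% FBS overnight) treated with test compound for 120 min at 37° C, then lysed with protease and phosphatase inhibitors. Phospho-p90RSK quantified by MSD sandwich immunoassay: RSK capture antibody, phospho-RSK detection antibody plus Sulfo-tagged antibody, electrochemiluminescence read.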

T1 sequence (P27361 whole entry): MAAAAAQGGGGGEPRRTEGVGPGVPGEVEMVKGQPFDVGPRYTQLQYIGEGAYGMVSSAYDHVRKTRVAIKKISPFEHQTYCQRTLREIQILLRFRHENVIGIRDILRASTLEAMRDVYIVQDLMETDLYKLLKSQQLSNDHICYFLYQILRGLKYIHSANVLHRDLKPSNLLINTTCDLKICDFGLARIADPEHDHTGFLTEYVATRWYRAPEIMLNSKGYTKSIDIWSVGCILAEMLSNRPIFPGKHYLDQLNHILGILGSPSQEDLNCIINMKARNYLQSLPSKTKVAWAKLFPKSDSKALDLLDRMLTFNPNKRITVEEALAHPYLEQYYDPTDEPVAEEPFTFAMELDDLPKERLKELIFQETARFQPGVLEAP

IC50 [1] [nM] | GI50 [2] [nM] | EC50 [3] [nM] | SMILES
101 to 500 | < 100 | < 100 | C=CC(=O)Nc1ccccc1Nc1nc(Nc2cc(OC)cc(OC)c2)ncc1C(F)(F)F [Compound I-338, N-(2-((2-((3,5-dimethoxyphenyl)amino)-5-(trifluoromethyl)pyrimidin-4-yl)amino)phenyl)acrylamide]
101 to 500 | < 100 | 101 to 500 | C=CC(=O)Nc1ccccc1Nc1nc(Nc2cc(OC)nc(N3CCCCC3)c2)ncc1C(F)(F)F [Compound I-282, N-(2-((2-((2-Methoxy-6-(piperidin-1-yl)pyridin-4-yl)amino)-5-(trifluoromethyl)pyrimidin-4-yl)amino)phenyl)acrylamide]
101 to 500 | 101 to 500 | 101 to 500 | C=CC(=O)Nc1ccccc1Nc1nc(N[C@H]2CCN(S(C)(=O)=O)C2)ncc1C(F)(F)F [Compound I-58, (S)—N-(2-((2-((1-(Methylsulfonyl)pyrrolidin-3-yl)amino)-5-(trifluoromethyl)pyrimidin-4-yl)amino)phenyl)acrylamide]
501 to 999 | < 100 | < 100 | C=CC(=O)Nc1cc(C)ccc1Nc1nc(Nc2cc(OC)nc(N(C)CCOC)c2)ncc1C(F)(F)F [Compound I-336, N-(2-((2-((2-methoxy-6-((2-methoxyethyl)(methyl)amino)pyridin-4-yl)amino)-5-(trifluoromethyl)pyrimidin-4-yl)amino)-5-methylphenyl)acrylamide]
101 to 500 | 101 to 500 | 101 to 500 | C=CC(=O)Nc1ccccc1Nc1nc(N[C@H]2CCN(C(C)=O)C2)ncc1C(F)(F)F [Compound I-56, (S)—N-(2-((2-((1-Acetylpyrrolidin-3-yl)amino)-5-(trifluoromethyl)pyrimidin-4-yl)amino)phenyl)acrylamide]
101 to 500 | < 100 | 101 to 500 | C=CC(=O)Nc1cc(C)ccc1Nc1nc(Nc2cc(OC)nc(N3CCN(CC)CC3)c2)ncc1C(F)(F)F [Compound I-89, N-(2-((2-((2-(4-Ethylpiperazin-1-yl)-6-methoxypyridin-4-yl)amino)-5-(trifluoromethyl)pyrimidin-4-yl)amino)-5-methylphenyl)acrylamide]
501 to 999 | 101 to 500 | 101 to 500 | C=CC(=O)Nc1cc(C)ccc1Nc1nc(Nc2cc(OC)nc(N(C)C3CC3)c2)ncc1C(F)(F)F [Compound I-342, N-(2-((2-((2-(cyclopropyl(methyl)amino)-6-methoxypyridin-4-yl)amino)-5-(trifluoromethyl)pyrimidin-4-yl)amino)-5-methylphenyl)acrylamide]
101 to 500 | > 1000 | 101 to 500 | C=CS(=O)(=O)Nc1cc(C)ccc1Nc1nc(Nc2cc(OC)ncc2C)ncc1C(F)(F)F [Compound I-333, N-(2-((2-((2-methoxy-5-methylpyridin-4-yl)amino)-5-(trifluoromethyl)pyrimidin-4-yl)amino)-5-methylphenyl)ethenesulfonamide]
101 to 500 | 101 to 500 | < 100 | C=CC(=O)Nc1ccccc1Nc1nc(Nc2cc(OC)ccc2C)ncc1C(F)(F)F [Compound I-340, N-(2-((2-((5-methoxy-2-methylphenyl)amino)-5-(trifluoromethyl)pyrimidin-4-yl)amino)phenyl)acrylamide]
101 to 500 | 101 to 500 | 101 to 500 | C=CC(=O)Nc1ccccc1Nc1nc(N[C@H]2CCN(C(=O)CO)C2)ncc1C(F)(F)F [Compound I-57, (S)—N-(2-((2-((1-(2-Hydroxyacetyl)pyrrolidin-3-yl)amino)-5-(trifluoromethyl)pyrimidin-4-yl)amino)phenyl)acrylamide]
101 to 500 | 101 to 500 | < 100 | C=CC(=O)Nc1cc(C)ccc1Nc1nc(Nc2cc(C(N)=O)ccn2)ncc1Cl [Compound I-238, 2-((4-((2-acrylamido-4-methylphenyl)amino)-5-chloropyrimidin-2-yl)amino)isonicotinamide]
501 to 999 | > 1000 | > 1000 | C=CC(=O)Nc1ccccc1Nc1nc(N[C@@H]2CCN(C(C)=O)C2)ncc1C(F)(F)F [Compound I-60, (R)—N-(2-((2-((1-Acetylpyrrolidin-3-yl)amino)-5-(trifluoromethyl)pyrimidin-4-yl)amino)phenyl)acrylamide]
101 to 500 | 101 to 500 | < 100 | C=CC(=O)Nc1cc(C(F)(F)F)ccc1Nc1nc(Nc2cc(OC)ncc2C)ncc1C(F)(F)F [Compound I-323, N-(2-((2-((2-methoxy-5-methylpyridin-4-yl)amino)-5-(trifluoromethyl)pyrimidin-4-yl)amino)-5-(trifluoromethyl)phenyl)acrylamide]
101 to 500 | < 100 | < 100 | C=CC(=O)Nc1cc(C)ccc1Nc1nc(Nc2cc(OC)nc(N3CCOCC3)c2)ncc1C(F)(F)F [Compound I-94, N-(2-((2-((2-Methoxy-6-morpholinopyridin-4-yl)amino)-5-(trifluoromethyl)pyrimidin-4-yl)amino)-5-methylphenyl)acrylamide]
101 to 500 | < 100 | 101 to 500 | C=CC(=O)Nc1ccccc1Nc1nc(Nc2ccnnc2)ncc1C(F)(F)F [Compound I-293, N-(2-((2-(Pyridazin-4-ylamino)-5-(trifluoromethyl)pyrimidin-4-yl)amino)phenyl)acrylamide]
501 to 999 | < 100 | < 100 | C=CC(=O)Nc1cc(C)ccc1Nc1nc(Nc2cc(NC3CC3)nc(OC)c2)ncc1C(F)(F)F [Compound I-337, N-(2-((2-((2-(cyclopropylamino)-6-methoxypyridin-4-yl)amino)-5-(trifluoromethyl)pyrimidin-4-yl)amino)-5-methylphenyl)acrylamide]
101 to 500 | < 100 | < 100 | C=CC(=O)Nc1ccccc1Nc1nc(Nc2cc(Cl)nc(OC)c2)ncc1Cl [Compound I-246, N-(2-((5-chloro-2-((2-chloro-6-methoxypyridin-4-yl)amino)pyrimidin-4-yl)amino)phenyl)acrylamide]
< 100 | < 100 | < 100 | C=CC(=O)Nc1ccccc1Nc1nc(N[C@H]2CCCN(C(C)=O)C2)ncc1Cl [Compound I-115, (S)—N-(2-((2-((1-acetylpiperidin-3-yl)amino)-5-chloropyrimidin-4-yl)amino)phenyl)acrylamide]
101 to 500 | 101 to 500 | < 100 | C=CC(=O)Nc1cc(OC)ccc1Nc1nc(Nc2cc(Cl)nc(OC)c2)ncc1Cl [Compound I-245, N-(2-((5-chloro-2-((2-chloro-6-methoxypyridin-4-yl)amino)pyrimidin-4-yl)amino)-5-methoxyphenyl)acrylamide]
501 to 999 | 101 to 500 | > 1000 | C=CC(=O)Nc1ccccc1Nc1nc(N[C@H]2CCN(C(=O)OC)C2)ncc1C(F)(F)F [Compound I-59, (S)-methyl 3-((4-((2-Acrylamidophenyl)amino)-5-(trifluoromethyl)pyrimidin-2-yl)amino)pyrrolidine-1-carboxylate]
